Assay results: ChEMBL document CHEMBL5608113, “Targeting of CAF-induced therapy resistance in CRC organoid-stroma co-cultures” (2024)

Key:
Format in all cases: functional, Homo sapiens
Details in all cases: Homo sapiens, read-out: Cell Viability; for viability at 1 µM: Concentration 1 uM; for viability at 10 µM: Concentration 10 uM
Colon cancer organoid [1] = test: Targeting of F14 CAF-induced therapy resistance in O23 CRC organoid-stroma co-culture. Cell viability is reported with SN-38.
Colon cancer organoid [2] = test: Targeting of F14 CAF-induced therapy resistance in O14 CRC organoid-stroma co-culture. Cell viability is reported without Gefitinib.
Colon cancer organoid [3] = test: Targeting of F14 CAF-induced therapy resistance in O14 CRC organoid-stroma co-culture. Cell viability is reported with Gefitinib.
Colon cancer organoid [4] = test: Targeting of F14 CAF-induced therapy resistance in O23 CRC organoid-stroma co-culture. Cell viability is reported without Gefitinib.
Colon cancer organoid [5] = test: Targeting of F14 CAF-induced therapy resistance in O23 CRC organoid-stroma co-culture. Cell viability is reported with Gefitinib.

SMILES	viability at 1 µM (Colon cancer organoid [1]) [%]	viability at 1 µM (Colon cancer organoid [2]) [%]	viability at 1 µM (Colon cancer organoid [3]) [%]	viability at 1 µM (Colon cancer organoid [4]) [%]	viability at 1 µM (Colon cancer organoid [5]) [%]	viability at 10 µM (Colon cancer organoid [1]) [%]	viability at 10 µM (Colon cancer organoid [2]) [%]	viability at 10 µM (Colon cancer organoid [3]) [%]	viability at 10 µM (Colon cancer organoid [4]) [%]	viability at 10 µM (Colon cancer organoid [5]) [%]
Nc1cnc(N2CCc3cc(S(=O)(=O)Nc4c(F)cc(Cl)cc4F)cc(N4CCCC4=O)c32)nc1 [TP-020n]	64.8	104	71.3	115	45.8	–	–	–	–	–
O=C(NCC(=O)N1CCCC1)Nc1ccc2cnccc2c1	–	–	–	–	–	39	83.8	76.1	179	68.5
CNCCN1CCC(OCc2ccccc2)CC1	–	–	–	–	–	69.2	42.5	43.9	139	59.5
CCCCNc1ncc(-c2ccc(CN3CCOCC3)cn2)c(N[C@H]2CC[C@H](O)CC2)n1	–	–	–	–	–	28.9	9.12	3.91	18.1	12
NS(=O)(=O)c1cc(NC(=O)Cc2ccccc2)ccc1Oc1cccc(Cl)c1 [BAY-1797]	–	–	–	–	–	60.6	124	51.7	114	48.6
COc1ccc2c(c1)O[C@H](c1ccc(OC)c(OC)c1)C[C@@H]2NC(=O)C1(c2ccc3c(c2)OC(F)(F)O3)CC1 [A-1596584]	–	–	–	–	–	59.1	74.5	48.4	111	48.5
COc1cccc2c1C(=O)c1c(O)c3c(c(O)c1C2=O)CC(O)(C(=O)CO)CC3OC1CC(N)C(O)C(C)O1 (stereo not given)	–	–	–	–	–	5.38	1.66	0.921	3.9	1.62
COc1cc2c(NC3CCN(C(C)C)CC3)nc(N3CCC(F)(F)CC3)nc2cc1OCCCN1CCCC1	–	–	–	–	–	91.7	71.2	56.9	107	62.4
CC(=O)N1CCC(c2ccc(C(=O)NC3=NCCN3)cc2C(F)(F)F)CC1 [BI 0054]	–	–	–	–	–	74.4	46.7	17.4	120	54.5
NC(=O)c1ccc2nc(-c3ccc(C4(N)CCC4)cc3)c(-c3ccccc3)n2n1 [BAY-1125976]	47.7	152	52.1	86	38	–	–	–	–	–
COc1ccc(Cn2ccc3ccc(C(=O)NO)cc32)cc1	–	–	–	–	–	94.6	75.4	52.8	126	89.4
CN(C(=O)c1ccccc1)c1cc(N(C)c2ccc3c(c2)CCc2ccc(C(=O)NCCN4CCOCC4)cc2C3=O)ccc1F [FM-743]	–	–	–	–	–	59.3	142	36.5	141	83.7
O=C(O)[C@@H]1[C@@H](Cn2nnc3ccccc3c2=O)CC[C@H]1C(=O)c1ccc(OCCC2CCOCC2)cc1 [BAY-694]	–	–	–	–	–	78.7	102	56	146	53
Cc1cc(C)c(-n2ccn3nc(-c4cccnc4)cc23)cc1NC(=O)c1cc(C#N)cc(S(F)(F)(F)(F)F)c1 [BAY-826]	64.2	145	58.7	102	58.2	–	–	–	–	–
Cc1cc(=O)n(C)c2cc(N3C(=O)CC[C@H](NS(=O)(=O)CC(C)C)[C@H]3c3ccc(Cl)cc3)ccc12	–	–	–	–	–	81.7	75.8	72.6	144	66
COc1c(C)cc(NC(=O)c2nn(Cc3ccc(F)cc3)c3c2CN(C(=O)c2ccc[nH]2)C[C@]3(C)C(N)=O)cc1C	–	–	–	–	–	73.7	121	52.8	81.4	66.4
COCCc1ccc(-c2c(C)nc3c(N4CCOCC4)ccnn23)cn1 [JNJ-42396302]	–	–	–	–	–	70.4	122	65.9	143	97
Cc1c(N2CCNCC2)nc2ccc(Br)cc2c1C(=O)NC[C@H](CCC(=O)O)c1ccccc1Cl [BAY-403]	–	–	–	–	–	87.2	85.5	29.6	60.5	48
COc1cc(Nc2nccc(-c3cnn4nc(OC)ccc34)n2)cc(C(F)(F)F)c1	–	–	–	–	–	23.6	3.97	3.12	53.3	19.5
CCNC(=O)c1cc2c(-c3cc(C(C)(C)O)ccc3Oc3c(C)cc(F)cc3C)cn(C)c(=O)c2[nH]1 [ABBV-744]	–	–	–	–	–	75.1	78.2	14.3	135	82
N#Cc1ccc(Nc2ccc3[nH]c(=O)[nH]c3c2)c(Cl)c1 [TP-021n]	63.2	115	59.2	161	47.2	–	–	–	–	–
CCCCNNC(=O)c1ccc(Br)cc1	–	–	–	–	–	75	85.9	44.9	151	53.8
Cc1nc(Cc2cccc(C(F)(F)F)c2)sc1-c1ccc(C(N)=O)nc1 [TP-024n]	93.5	123	81.1	178	43.7	–	–	–	–	–
Nc1nc(NCc2ccccc2)nc(-c2cccc(CO)c2)n1 [ZINC32547799]	–	–	–	–	–	119	76	31.3	139	75.9
CO[C@@H](C)c1c(Nc2ccc([C@@H](N(C)C(=O)C3CCS(=O)(=O)CC3)C(F)(F)F)cc2)cnc2cc(Cl)nn12 [NVS-MALT1-C]	–	–	–	–	–	82.8	84.5	34.3	119	70.3
CCCOc1ccc([C@@H]2[C@@H](C(=O)O)[C@H](c3ccc4c(c3)OCO4)CN2CC(=O)Nc2c(CC)cccc2CC)cc1 [A-1806262]	54.5	79.9	47.8	85	38.9	–	–	–	–	–
Cn1c(C2(NC(=O)c3ccc4c(C5CCCC5)c(-c5ncc(Br)cn5)n(C)c4c3)CCC2)nc2ccc(/C=C/C(=O)O)cc21 [DELEOBUVIR]	–	–	–	–	–	60.4	126	50.5	112	94.6
O=C(c1ccc(C(=O)N2CCC(N3CCCC3)CC2)c(Nc2ccccc2)c1)N1CCC(N2CCCC2)CC1	–	–	–	–	–	67.2	121	47.7	122	57.4
Cn1nc(C(F)(F)F)cc1-c1cnc(N2CCc3cc(S(=O)(=O)Nc4c(F)cc(Cl)cc4F)cc(N4CCCC4=O)c32)nc1 [TP-020]	–	–	–	–	–	92.4	95	61.7	133	65.7
